Experimental data published in the kinase profiling compilation of Christmann-Franck et al. (2016).

Tests used:
Assay in all cases: KINOMEscan competition binding
[1] = target: MAPK1 (human) (UniProt P28482); conditions: compound 1.0 µM
[2] = target: STK16 (human) (UniProt O75716); conditions: compound 1.0 µM
[3] = target: PDPK1 (human) (UniProt O15530); conditions: compound 1.0 µM
[4] = target: MYLK (human) (UniProt Q15746); conditions: compound 1.0 µM
[5] = target: FER (human) (UniProt P16591); conditions: compound 1.0 µM
[6] = target: DMPK (human) (UniProt Q09013); conditions: compound 1.0 µM
[7] = target: MUSK (human) (UniProt O15146); conditions: compound 1.0 µM
[8] = target: RPS6KA3 KD1 (human) (UniProt P51812); conditions: compound 1.0 µM
[9] = target: BRSK2 (human) (UniProt Q8IWQ3); conditions: compound 1.0 µM
[10] = target: TBK1 (human) (UniProt Q9UHD2); conditions: compound 1.0 µM
[11] = target: GRK4 (human) (UniProt P32298); conditions: compound 1.0 µM
[12] = target: NEK9 (human) (UniProt Q8TD19); conditions: compound 1.0 µM
[13] = target: NLK (human) (UniProt Q9UBE8); conditions: compound 1.0 µM
[14] = target: MAPK9 (human) (UniProt P45984); conditions: compound 1.0 µM
[15] = target: TNIK (human) (UniProt Q9UKE5); conditions: compound 1.0 µM
TNIK (human), sequence (Q9UKE5 whole entry, looked up): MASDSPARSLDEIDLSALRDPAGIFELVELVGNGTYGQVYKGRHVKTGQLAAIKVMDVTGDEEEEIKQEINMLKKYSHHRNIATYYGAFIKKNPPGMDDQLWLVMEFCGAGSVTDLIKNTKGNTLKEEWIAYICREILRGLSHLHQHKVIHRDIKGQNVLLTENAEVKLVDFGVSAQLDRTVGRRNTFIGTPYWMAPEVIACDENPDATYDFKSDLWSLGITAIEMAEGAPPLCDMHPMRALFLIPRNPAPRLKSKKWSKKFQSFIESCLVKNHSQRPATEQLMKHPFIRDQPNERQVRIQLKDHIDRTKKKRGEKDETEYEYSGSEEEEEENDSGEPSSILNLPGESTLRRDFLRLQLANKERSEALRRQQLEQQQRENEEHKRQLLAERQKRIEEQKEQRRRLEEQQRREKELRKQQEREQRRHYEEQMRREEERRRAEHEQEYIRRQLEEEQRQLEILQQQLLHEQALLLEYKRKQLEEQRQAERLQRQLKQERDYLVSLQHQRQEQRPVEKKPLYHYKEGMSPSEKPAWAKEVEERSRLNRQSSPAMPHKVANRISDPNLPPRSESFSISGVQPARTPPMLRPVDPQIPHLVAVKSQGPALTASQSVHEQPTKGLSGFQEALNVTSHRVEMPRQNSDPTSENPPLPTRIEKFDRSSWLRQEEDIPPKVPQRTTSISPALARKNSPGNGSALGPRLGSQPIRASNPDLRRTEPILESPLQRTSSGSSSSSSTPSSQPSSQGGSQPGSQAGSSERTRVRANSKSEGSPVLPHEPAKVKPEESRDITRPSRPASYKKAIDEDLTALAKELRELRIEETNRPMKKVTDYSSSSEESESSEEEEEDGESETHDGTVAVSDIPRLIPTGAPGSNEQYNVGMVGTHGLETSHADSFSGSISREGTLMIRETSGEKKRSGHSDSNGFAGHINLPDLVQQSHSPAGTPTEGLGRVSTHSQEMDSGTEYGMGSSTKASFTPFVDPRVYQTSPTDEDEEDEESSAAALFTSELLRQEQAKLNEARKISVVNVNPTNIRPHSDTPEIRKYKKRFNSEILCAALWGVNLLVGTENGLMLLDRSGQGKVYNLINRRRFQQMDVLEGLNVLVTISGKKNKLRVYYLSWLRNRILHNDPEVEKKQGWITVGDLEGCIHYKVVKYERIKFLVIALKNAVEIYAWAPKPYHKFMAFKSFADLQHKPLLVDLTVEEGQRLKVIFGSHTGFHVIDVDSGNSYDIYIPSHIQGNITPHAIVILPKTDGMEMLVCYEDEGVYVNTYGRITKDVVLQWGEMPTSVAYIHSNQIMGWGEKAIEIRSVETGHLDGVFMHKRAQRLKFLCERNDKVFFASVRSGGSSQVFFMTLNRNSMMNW

[16] = system: PIK3CA (human), P42336 [C420R]; conditions: compound 1.0 µM
[17] = target: CAMK2D (human) (UniProt Q13557); conditions: compound 1.0 µM
[18] = target: MAP3K3 (human) (UniProt Q99759); conditions: compound 1.0 µM
[19] = system: KIT (human), P10721 [V559D/V654A]; conditions: compound 1.0 µM
[20] = target: JAK2 JH1 catalytic (human) (UniProt O60674); conditions: compound 1.0 µM
[21] = target: CSNK2A2 (human) (UniProt P19784); conditions: compound 1.0 µM
[22] = target: ACVRL1 (human) (UniProt P37023); conditions: compound 1.0 µM
[23] = target: CAMK2A (human) (UniProt Q9UQM7); conditions: compound 1.0 µM
[24] = system: ABL1 (human), P00519 [M351T]; conditions: compound 1.0 µM
[25] = target: LRRK2 (human) (UniProt Q5S007); conditions: compound 1.0 µM
[26] = target: CDC42BPG (human) (UniProt Q6DT37); conditions: compound 1.0 µM
[27] = target: AAK1 (human) (UniProt Q2M2I8); conditions: compound 1.0 µM
AAK1 (human), sequence (Q2M2I8 whole entry, looked up): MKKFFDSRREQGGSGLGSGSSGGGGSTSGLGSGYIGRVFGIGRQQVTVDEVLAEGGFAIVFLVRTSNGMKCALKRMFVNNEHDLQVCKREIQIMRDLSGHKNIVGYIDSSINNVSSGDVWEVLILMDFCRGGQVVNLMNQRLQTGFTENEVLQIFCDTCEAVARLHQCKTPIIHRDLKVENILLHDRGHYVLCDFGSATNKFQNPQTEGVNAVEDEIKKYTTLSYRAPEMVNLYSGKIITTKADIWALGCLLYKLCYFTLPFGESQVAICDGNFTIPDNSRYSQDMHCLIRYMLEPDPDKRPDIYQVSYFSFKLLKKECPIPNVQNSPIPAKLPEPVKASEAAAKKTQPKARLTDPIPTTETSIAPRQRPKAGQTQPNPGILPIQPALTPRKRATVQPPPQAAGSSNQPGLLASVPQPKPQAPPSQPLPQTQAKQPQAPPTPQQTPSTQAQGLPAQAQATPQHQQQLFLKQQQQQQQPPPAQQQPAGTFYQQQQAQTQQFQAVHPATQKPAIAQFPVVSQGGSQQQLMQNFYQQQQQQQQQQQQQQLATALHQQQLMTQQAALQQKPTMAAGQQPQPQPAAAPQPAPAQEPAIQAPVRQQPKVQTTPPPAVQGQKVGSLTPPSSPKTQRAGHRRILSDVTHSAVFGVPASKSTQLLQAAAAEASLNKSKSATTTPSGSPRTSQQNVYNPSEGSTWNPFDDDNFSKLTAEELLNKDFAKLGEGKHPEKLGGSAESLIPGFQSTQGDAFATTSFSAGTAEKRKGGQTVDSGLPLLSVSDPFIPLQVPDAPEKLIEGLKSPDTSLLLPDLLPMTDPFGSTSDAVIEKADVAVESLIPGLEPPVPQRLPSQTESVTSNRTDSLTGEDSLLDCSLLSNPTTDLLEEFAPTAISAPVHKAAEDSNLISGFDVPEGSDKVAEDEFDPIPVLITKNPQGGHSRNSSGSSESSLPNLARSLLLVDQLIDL

[28] = target: MYO3A (human) (UniProt Q8NEV4); conditions: compound 1.0 µM
[29] = target: STK3 (human) (UniProt Q13188); conditions: compound 1.0 µM
STK3 (human), sequence (Q13188 whole entry, looked up): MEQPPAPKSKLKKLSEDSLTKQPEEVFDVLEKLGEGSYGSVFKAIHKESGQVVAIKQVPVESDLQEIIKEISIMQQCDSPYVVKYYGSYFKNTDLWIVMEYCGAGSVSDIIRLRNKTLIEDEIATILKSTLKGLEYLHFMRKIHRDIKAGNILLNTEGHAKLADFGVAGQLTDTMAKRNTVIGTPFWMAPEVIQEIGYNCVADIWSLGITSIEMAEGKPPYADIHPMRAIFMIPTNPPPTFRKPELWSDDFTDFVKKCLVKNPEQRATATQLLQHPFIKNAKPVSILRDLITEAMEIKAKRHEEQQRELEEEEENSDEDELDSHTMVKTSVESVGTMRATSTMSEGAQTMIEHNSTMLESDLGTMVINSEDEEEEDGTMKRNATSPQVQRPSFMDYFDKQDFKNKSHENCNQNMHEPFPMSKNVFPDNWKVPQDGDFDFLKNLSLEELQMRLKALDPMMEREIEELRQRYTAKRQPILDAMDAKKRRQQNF

[30] = target: LCK (human) (UniProt P06239); conditions: compound 1.0 µM
LCK (human), sequence (P06239 whole entry, looked up): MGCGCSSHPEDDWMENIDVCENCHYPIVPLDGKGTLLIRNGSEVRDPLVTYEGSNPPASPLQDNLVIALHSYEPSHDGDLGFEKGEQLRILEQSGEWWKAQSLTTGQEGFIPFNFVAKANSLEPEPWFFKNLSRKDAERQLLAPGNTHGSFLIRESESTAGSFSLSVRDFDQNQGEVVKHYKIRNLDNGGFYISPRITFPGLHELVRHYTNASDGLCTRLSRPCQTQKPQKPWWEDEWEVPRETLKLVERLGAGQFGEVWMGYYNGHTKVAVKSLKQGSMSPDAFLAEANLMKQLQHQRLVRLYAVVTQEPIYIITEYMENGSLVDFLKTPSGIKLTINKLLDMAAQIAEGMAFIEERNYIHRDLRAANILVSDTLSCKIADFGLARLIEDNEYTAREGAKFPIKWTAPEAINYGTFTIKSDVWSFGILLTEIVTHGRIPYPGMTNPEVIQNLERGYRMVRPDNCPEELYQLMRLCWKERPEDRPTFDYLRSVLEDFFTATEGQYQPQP

[31] = target: EPHB4 (human) (UniProt P54760); conditions: compound 1.0 µM
[32] = target: EPHB3 (human) (UniProt P54753); conditions: compound 1.0 µM
[33] = target: CAMKK1 (human) (UniProt Q8N5S9); conditions: compound 1.0 µM
CAMKK1 (human), sequence (Q8N5S9 whole entry, looked up): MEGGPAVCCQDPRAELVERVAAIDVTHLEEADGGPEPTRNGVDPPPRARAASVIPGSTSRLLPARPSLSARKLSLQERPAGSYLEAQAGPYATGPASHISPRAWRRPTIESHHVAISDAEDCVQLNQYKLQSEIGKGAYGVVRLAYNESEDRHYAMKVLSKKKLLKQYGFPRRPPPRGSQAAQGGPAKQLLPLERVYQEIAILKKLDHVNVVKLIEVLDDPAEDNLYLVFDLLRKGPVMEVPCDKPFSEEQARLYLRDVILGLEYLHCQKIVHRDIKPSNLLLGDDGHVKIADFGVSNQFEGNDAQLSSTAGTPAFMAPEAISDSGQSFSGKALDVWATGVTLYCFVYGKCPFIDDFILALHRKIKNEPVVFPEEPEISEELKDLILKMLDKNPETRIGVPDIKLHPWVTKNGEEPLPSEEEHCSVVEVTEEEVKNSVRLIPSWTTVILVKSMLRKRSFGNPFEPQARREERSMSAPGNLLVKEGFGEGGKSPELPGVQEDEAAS

[34] = target: SLK (human) (UniProt Q9H2G2); conditions: compound 1.0 µM
[35] = target: MAP3K2 (human) (UniProt Q9Y2U5); conditions: compound 1.0 µM
[36] = target: CLK2 (human) (UniProt P49760); conditions: compound 1.0 µM
[37] = target: PIP5K1A (human) (UniProt Q99755); conditions: compound 1.0 µM
PIP5K1A (human), sequence (Q99755 whole entry, looked up): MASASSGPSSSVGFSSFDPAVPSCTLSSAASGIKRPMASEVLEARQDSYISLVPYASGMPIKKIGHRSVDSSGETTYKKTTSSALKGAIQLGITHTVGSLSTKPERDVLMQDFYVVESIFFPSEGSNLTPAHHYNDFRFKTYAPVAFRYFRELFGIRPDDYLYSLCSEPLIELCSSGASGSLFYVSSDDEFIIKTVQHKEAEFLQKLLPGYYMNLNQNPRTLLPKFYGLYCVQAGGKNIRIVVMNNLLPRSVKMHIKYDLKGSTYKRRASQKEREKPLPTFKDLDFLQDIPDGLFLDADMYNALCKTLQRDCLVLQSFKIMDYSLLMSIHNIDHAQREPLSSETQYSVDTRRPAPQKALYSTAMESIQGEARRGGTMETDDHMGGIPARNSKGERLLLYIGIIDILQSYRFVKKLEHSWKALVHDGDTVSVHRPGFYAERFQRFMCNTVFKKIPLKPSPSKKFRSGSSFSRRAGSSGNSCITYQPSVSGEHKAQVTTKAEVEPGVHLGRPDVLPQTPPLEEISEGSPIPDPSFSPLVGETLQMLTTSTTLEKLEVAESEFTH

[38] = system: KIT (human), P10721 [V559D/T670I]; conditions: compound 1.0 µM
[39] = target: CSNK2A1 (human) (UniProt P68400); conditions: compound 1.0 µM
[40] = target: MAPKAPK2 (human) (UniProt P49137); conditions: compound 1.0 µM
[41] = target: ICK (human) (UniProt Q9UPZ9); conditions: for kinase still bound, per cent of control: compound 1.0 µM
ICK (human), sequence (Q9UPZ9 whole entry, looked up): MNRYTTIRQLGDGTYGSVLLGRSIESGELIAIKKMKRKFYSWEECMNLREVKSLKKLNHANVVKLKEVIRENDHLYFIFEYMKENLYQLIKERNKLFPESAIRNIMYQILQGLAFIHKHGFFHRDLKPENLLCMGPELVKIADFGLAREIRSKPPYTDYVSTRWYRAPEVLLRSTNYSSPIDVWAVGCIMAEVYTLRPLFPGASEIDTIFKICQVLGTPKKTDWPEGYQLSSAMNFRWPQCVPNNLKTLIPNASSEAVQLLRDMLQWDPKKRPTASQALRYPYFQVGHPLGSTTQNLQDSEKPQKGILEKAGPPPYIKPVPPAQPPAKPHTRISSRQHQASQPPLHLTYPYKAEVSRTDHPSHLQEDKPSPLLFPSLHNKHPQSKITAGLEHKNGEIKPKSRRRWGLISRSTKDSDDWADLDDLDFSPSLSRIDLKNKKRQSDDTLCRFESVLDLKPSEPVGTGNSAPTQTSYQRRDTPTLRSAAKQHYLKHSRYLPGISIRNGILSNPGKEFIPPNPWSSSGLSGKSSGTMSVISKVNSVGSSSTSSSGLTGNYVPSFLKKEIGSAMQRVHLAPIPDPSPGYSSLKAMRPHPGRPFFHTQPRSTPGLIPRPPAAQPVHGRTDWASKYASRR

[42] = target: FYN (human) (UniProt P06241); conditions: compound 1.0 µM

Cc1cc(NC(=O)c2cccc(NC(=O)/C=C/CN(C)C)c2)ccc1Nc1nccc(-c2cccnc2)n1
kinase still bound, per cent of control [1]: 99% | kinase still bound, per cent of control [2]: 61% | kinase still bound, per cent of control [3]: 61% | kinase still bound, per cent of control [4]: 93% | kinase still bound, per cent of control [5]: 100% | kinase still bound, per cent of control [6]: 63% | kinase still bound, per cent of control [7]: 100% | kinase still bound, per cent of control [8]: 100% | kinase still bound, per cent of control [9]: 99% | kinase still bound, per cent of control [10]: 100% | kinase still bound, per cent of control [11]: 96% | kinase still bound, per cent of control [12]: 100% | kinase still bound, per cent of control [13]: 70% | kinase still bound, per cent of control [14]: 0% | kinase still bound, per cent of control [15]: 56% | kinase still bound, per cent of control [16]: 99% | kinase still bound, per cent of control [17]: 100% | kinase still bound, per cent of control [18]: 95% | kinase still bound, per cent of control [19]: 81% | kinase still bound, per cent of control [20]: 100% | kinase still bound, per cent of control [21]: 39% | kinase still bound, per cent of control [22]: 96% | kinase still bound, per cent of control [23]: 100% | kinase still bound, per cent of control [24]: 81% | kinase still bound, per cent of control [25]: 50% | kinase still bound, per cent of control [26]: 86% | kinase still bound, per cent of control [27]: 69% | kinase still bound, per cent of control [28]: 81% | kinase still bound, per cent of control [29]: 48% | kinase still bound, per cent of control [30]: 100% | kinase still bound, per cent of control [31]: 100% | kinase still bound, per cent of control [32]: 100% | kinase still bound, per cent of control [33]: 100% | kinase still bound, per cent of control [34]: 100% | kinase still bound, per cent of control [35]: 100% | kinase still bound, per cent of control [36]: 95% | kinase still bound, per cent of control [37]: 75% | kinase still bound, per cent of control [38]: 4.4% | kinase still bound, per cent of control [39]: 57% | kinase still bound, per cent of control [40]: 100% | kinase still bound, per cent of control [41]: 92% | kinase still bound, per cent of control [42]: 78%

CN(C)C/C=C/C(=O)Nc1cccc(C(=O)Nc2ccc(Nc3nccc(-c4cccnc4)n3)cc2)c1
kinase still bound, per cent of control [1]: 100% | kinase still bound, per cent of control [2]: 15% | kinase still bound, per cent of control [3]: 93% | kinase still bound, per cent of control [4]: 100% | kinase still bound, per cent of control [5]: 100% | kinase still bound, per cent of control [6]: 90% | kinase still bound, per cent of control [7]: 94% | kinase still bound, per cent of control [8]: 100% | kinase still bound, per cent of control [9]: 98% | kinase still bound, per cent of control [10]: 61% | kinase still bound, per cent of control [11]: 32% | kinase still bound, per cent of control [12]: 48% | kinase still bound, per cent of control [13]: 81% | kinase still bound, per cent of control [14]: 0% | kinase still bound, per cent of control [15]: 40% | kinase still bound, per cent of control [16]: 100% | kinase still bound, per cent of control [17]: 100% | kinase still bound, per cent of control [18]: 77% | kinase still bound, per cent of control [19]: 67% | kinase still bound, per cent of control [20]: 50% | kinase still bound, per cent of control [21]: 13% | kinase still bound, per cent of control [22]: 100% | kinase still bound, per cent of control [23]: 100% | kinase still bound, per cent of control [24]: 42% | kinase still bound, per cent of control [25]: 63% | kinase still bound, per cent of control [26]: 73% | kinase still bound, per cent of control [27]: 18% | kinase still bound, per cent of control [28]: 81% | kinase still bound, per cent of control [29]: 87% | kinase still bound, per cent of control [30]: 100% | kinase still bound, per cent of control [31]: 100% | kinase still bound, per cent of control [32]: 96% | kinase still bound, per cent of control [33]: 64% | kinase still bound, per cent of control [34]: 100% | kinase still bound, per cent of control [35]: 100% | kinase still bound, per cent of control [36]: 18% | kinase still bound, per cent of control [37]: 18% | kinase still bound, per cent of control [38]: 9.8% | kinase still bound, per cent of control [39]: 17% | kinase still bound, per cent of control [40]: 100% | Kd [41]: 0.054 µM | kinase still bound, per cent of control [41]: 3.4% | kinase still bound, per cent of control [42]: 90%
